Patent publication US6297282A, “Substituted derivatives of benzosulphonamides as inhibitors of the enzyme cyclooxygenase II” (Nycomed Austria GmbH, priority 1997, dated 2001)

Columns and labels:
[1] = molecular target: T1, cyclooxygenase-II (human COX-2) (Homo sapiens, UniProt P35354); assay: Human COX-2 Test (LPS-stimulated human monocytoid cell line, arachidonic acid, ELISA of cyclooxygenase products); assay type: cell-based; conditions: for IC50: LPS-stimulated human monocytoid cell line, half an hour incubation, then arachidonic acid 15 minutes, 37° C.; for COX I/COX II (selectivity): ratio of COX I IC50 to COX II IC50
T1 construct: endogenous in cells
T1 sequence (P35354 18-604): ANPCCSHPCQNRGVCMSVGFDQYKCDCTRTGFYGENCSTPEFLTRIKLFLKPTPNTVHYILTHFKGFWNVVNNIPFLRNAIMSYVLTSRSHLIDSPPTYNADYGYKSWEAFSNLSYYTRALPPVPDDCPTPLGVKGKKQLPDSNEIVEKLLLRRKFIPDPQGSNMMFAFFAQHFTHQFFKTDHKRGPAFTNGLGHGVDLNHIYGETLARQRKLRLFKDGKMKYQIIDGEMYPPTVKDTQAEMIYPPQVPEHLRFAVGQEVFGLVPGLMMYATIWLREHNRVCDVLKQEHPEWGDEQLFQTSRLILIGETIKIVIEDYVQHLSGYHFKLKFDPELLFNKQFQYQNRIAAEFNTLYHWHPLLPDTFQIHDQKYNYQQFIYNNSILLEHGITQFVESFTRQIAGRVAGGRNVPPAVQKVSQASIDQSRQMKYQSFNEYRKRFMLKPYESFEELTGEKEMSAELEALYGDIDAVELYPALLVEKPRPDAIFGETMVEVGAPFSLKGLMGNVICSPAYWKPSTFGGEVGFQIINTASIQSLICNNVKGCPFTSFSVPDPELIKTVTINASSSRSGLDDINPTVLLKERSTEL
Procedure: Cells of a human monocytoid cell line were stimulated with lipopolysaccharide (LPS) (incubator at 37° C., 5% CO2 -enriched atmosphere and almost 100% atmospheric humidity), in order to induce COX-2. Following this, the culture medium (RPMI 1640, enriched with 10% FCS, 2 mM glutamine, 10000 U/ml penicillin, […] and 1 mM pyruvate) is refreshed and potential inhibitor substances of cyclooxygenase-II, dissolved in culture medium or in phosphate-buffered saline or in some other solvent compatible with cell cultures, are added and then incubated for half an hour as described above. Arachidonic acid is added by pipette and incubation is carried out for a further 15 minutes. The culture supernatant of the cells is removed and its content of products of cyclooxygenase metabolism (e.g. Prostaglandin E2, Prostaglandin F1a, Thromboxane B2) is measured by ELISA.

[2] = molecular target: T2, cyclooxygenase-I (human COX-1) (Homo sapiens, UniProt P23219); assay: Human COX-1 Test (inhibition of arachidonic acid-induced aggregation of washed human thrombocytes); assay type: cell-based; conditions: arachidonic acid 10 μM final concentration, 37° C., test substance added 2 minutes before
T2 construct: arachidonic acid-induced aggregation of washed human thrombocytes; endogenous in cells; host or cells: washed human thrombocytes (blood platelets)
Procedure: Inhibition of the arachidonic acid-induced aggregation of washed human thrombocytes was used as a test system for an estimation of the inhibition of cyclooxygenase-I. A thrombocyte suspension at 37° C. was added to the test substances 2 minutes before addition of the arachidonic acid (10 μM final concentration) and the aggregation course was recorded via an aggregometer. With the assistance of a concentration-effect curve, the concentration of test substance was determined at which 50% aggregation was measured (IC50).

T2 sequence (P23219 24-599): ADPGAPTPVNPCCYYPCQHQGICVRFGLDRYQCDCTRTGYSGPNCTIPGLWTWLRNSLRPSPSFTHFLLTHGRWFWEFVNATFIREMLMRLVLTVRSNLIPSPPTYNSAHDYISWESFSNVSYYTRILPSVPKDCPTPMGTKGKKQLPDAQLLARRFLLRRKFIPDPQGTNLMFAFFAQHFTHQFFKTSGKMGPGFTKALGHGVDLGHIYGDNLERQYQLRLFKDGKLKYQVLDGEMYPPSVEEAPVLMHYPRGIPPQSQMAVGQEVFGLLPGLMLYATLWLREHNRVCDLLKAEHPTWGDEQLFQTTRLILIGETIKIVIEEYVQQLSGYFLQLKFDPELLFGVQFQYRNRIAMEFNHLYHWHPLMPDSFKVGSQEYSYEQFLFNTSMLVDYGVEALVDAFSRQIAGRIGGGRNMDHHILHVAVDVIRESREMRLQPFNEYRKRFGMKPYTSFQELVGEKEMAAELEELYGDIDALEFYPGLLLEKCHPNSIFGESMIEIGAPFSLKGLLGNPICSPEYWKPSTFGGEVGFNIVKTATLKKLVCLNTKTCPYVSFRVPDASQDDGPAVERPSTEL

IC50 [1] [µM]	COX I/COX II (selectivity) [1]	IC50 [2] [µM]	Compound
0.1	250	25	CS(=O)(=O)Nc1ccc(S(N)(=O)=O)c(Cl)c1Sc1ccc(Cl)cc1Cl [Example 1, 3-(2,4-Dichlorophenylthio)-2-chloro-4-methylsulphonylamino-benzosulphonamide]
0.1	200	20	C=CS(=O)(=O)Nc1ccc(S(N)(=O)=O)cc1Sc1ccc(Cl)cc1Cl [Example 6, 3-(2,4-dichlorophenylthio)-4-vinylsulphonyl-amino-benzosulphonamide]
